Data published in patent US10401793B2, “Digital holographic method of measuring cellular activity and measuring apparatus with improved stability” (PURDUE RESEARCH FOUNDATION, priority 2010, dated 2019).
“Also recorded” adds a separate entry of the source. Like-named read-outs stand apart in the source and are kept apart here.

Tests used:
Format in all cases: cell-based
tumor spheroids = assay: Motility contrast imaging (motility metric, dynamic speckle) of tumor spheroids; settings: for dose-response plotted as a reaction velocity (suppression of cellular motion): FIG. 13D, comparison of Nocodazole, Colchicine, Taxol
Description: To create tumor spheroids for our studies, two different cell lines were used: rat osteogenic sarcoma UMR-106 cells, and human liver carcinoma Hep G2 cells. These were cultured in a rotating bioreactor (Synthecon, Houston, Tex.) where they were maintained in suspension. The spheroids may be grown up to a mm in diameter. An advantage to using this continuous culture model is that fresh spheroids of varying size are easily prepared on a daily basis.
Motility contrast imaging relies on dynamic light scattering combined with coherence gating. […] The data are the reconstructed pixel intensities plotted on a dB reflectance scale. The tumor in FIG. 9A was “healthy” while the tumor in FIG. 9B had been crosslinked with glutaraldehyde. […] The vertical axis is frame number at a rate of one frame per second.
Among the several possible ways to define a motility metric, one particularly robust approach simply calculates the coefficient of variance (known as the CV or as the normalized standard deviation) of a pixel value (after background subtraction) as a property related to the cellular and subcellular motion. The motility metric for individual pixels is plotted in FIG. 11 at nine selected depths inside a healthy tumor. The depths starting in the upper-left are 60 μm, 120 μm, 180 μm, 260 μm, 330 μm, 390 μm, 460 μm, 530 μm and 600 μm, respectively. The first frame is near the top of the tumor, while the central frame is near the center plane of the tumor. In the central plane there is a strong contrast between the healthy shell and necrotic core. […] These images correlate with the known structure of the tumor spheroids with a healthy outer shell and a necrotic core. In these images, the internal motions of the cells themselves have provided the imaging contrast agent. This is a truly endogenous functional imaging approach (i.e. without additional labeling or contrast agents).
Armed with the motility metric and the maps of cellular motion, it is possible to image the effects of anti-mitotic drugs (AMD) on the motility images. A time series at a fixed depth is shown in FIG. 12 for Nocodazole, which is an antimitotic drug (AMD) that inhibits the polymerization of tubulin into microtubules. The first frame is the initial state of the tumor. […] Nocodazole inhibits the polymerization of the microtubules, while treadmilling dissolves the microtubules from the other end, resulting in a significant reduction in the microtubule density within the cells. Without the microtubule cytoskeleton, organelle transport is suppressed, which is captured by the dynamic light scattering.

[1] = tested on: Rat osteogenic sarcoma tumor spheroids; assay: Speckle fluctuation spectroscopy: differential spectrograms (normalized spectral difference) of living tumor spheroids by coherence-gated digital holography
Text: The set-up includes several mirrors M; a neutral density filter ND, two polarizing beam splitters PBS, a beam splitter BS, three lenses L1-L3, a half-wave plate λ/2, a quarter-wave plate λ/4, a Fourier plane FP, and a sample or target T. A mode-locked Ti:sapphire laser (100 fs pulse duration, 100 MHz repetition rate) was used with a center wavelength of 840 nm and a bandwidth of 17 nm. The lenses L1 and L2 expanded a reference beam, and the lens L3 performed the Fourier transform of the object beam. The CCD camera was placed at the Fourier plane of the object, where the object beam interfered with the zero-path-matched reference beam that passed through the computer-controlled delay line. The typical object intensity for living tissue at the object plane was 5 mW/mm^2, and an 8-bit CCD camera with one mega-pixel resolution was used with an exposure time of 10 msec. Digital holograms were reconstructed by Fast Fourier transform (FFT).
Rat osteogenic sarcoma tumor spheroids were used as the target tissue samples. Multicellular tumor spheroids have approximately spherical geometry that facilitates comparison of structure to function. As tumor spheroids are cultured in a rotating bioreactor, they undergo cell apoptosis or necrosis in their center and so consist of an inner necrotic core surrounded by an outer proliferating shell with a 100 to 200 μm thickness. A typical pseudo B-scan image is shown in FIG. 20, which is produced from 3D holographic images of an 800-μm-diameter rat tumor spheroid.
To capture dynamic speckle, 200 successive digital holograms were acquired at a fixed depth shown as a dashed line in FIG. 20. The time interval between holograms was selected to be 0.1 second. Examples of dynamic speckle are shown in FIG. 21A for a healthy rat tumor spheroid with a 600 μm diameter. […] The horizontal axis is the spatial axis and time is vertical. […] A “healthy” tumor is one that has been removed from the bioreactor and maintained in growth medium at room temperature for no more than 24 hours.
For tissue responding to stimuli, such as temperature and osmolarity changes or response to drugs, the key property of the spectral power density is its relative change in response to the stimulus. The normalized spectral difference for a time series is given by
[formula] where S0 (ω,t 0) is the starting spectral power density at the beginning time t0 of the experiment, and S(ω, t) is the time development of the spectral power density. The normalized power spectrum as a function of frequency of a 450-μm-diameter tumor responding to a dose of 1 μg/ml of nocodazole, an anti-tubulin cytoskeletal drug, is shown in FIG. 21C at selected times after the application of the drug. The associated normalized differential relative spectral change is shown in FIG. 21D as a function of time for the selected frequencies.
The tissue response contained in D(ω, t) can be represented as a spectrogram, showing the relative change in the spectrum as a function of time. These spectrograms track the changes of the intra-cellular motion in living tumors responding to temperature changes, osmolarity changes, and to nocodazole. The spectral difference in response to changes in temperature is shown in FIG. 22A as the temperature increased from 24° C. to 37° C. and then decreased to 24° C. The lower frequencies show weak suppression with increasing temperature, while the upper frequencies show significant enhancement at the highest temperature.
The drug-response spectrograms are defined by the differential relative spectral density as D(ω, t)=[S(ω, t)−S(ω, t0)]/S (ω, t0) where the spectrum at time t is related to and normalized by the spectrum at time to before the application of the perturbation or dose. The normalization is essential, because the spectral power density has general 1/f behavior, and the high frequency amplitudes are much smaller than the low frequency amplitudes. […]

[2] = tested on: tumor spheroid (healthy shell and necrotic core); assay: Heterodyne autocorrelation function of depth-gated speckle (correlation time, NSD) of a tumor spheroid; settings: 10 minutes after 10 μg/ml cytochalasin D
Text: In living tissue, the speckle is dynamic, caused by motion of cellular membranes and by intracellular organelles, coupled with the optical channel cross-talk caused by multiple scattering. […] We previously studied the effects of anti-mitotic drugs on tumor spheroids using optical coherence imaging, and defined motility metrics from the autocorrelation functions of the depth-gated pixel fluctuations. The resulting motility contrast imaging (MCI) is fully endogenous, responding to the dynamic functions of cellular processes. The autocorrelation function is a first-order heterodyne function because the holography uses a reference wave (the coherence gate) that captures the real and imaginary part of the fluctuating field as the coherence-gated pixel number Id^(1) (t) to yield the autocorrelation function A^(1)(τ)= ? id^(1)(0)id^(1)(τ) ? ∝ILO^2+2ILORE {I^(1)(τ)} where τ is the time delay among an ensemble of images, and I^(1), (τ) is the heterodyne correlation function. Two motility metrics can be defined from the heterodyne correlation function. They are the decay time, and the normalized standard deviation, given by
An ensemble consists of 40 images taken with a frame rate of 1 per second. […] […].

## O=CCCCC=O [glutaraldehyde]
Tumor spheroids; tumor crosslinked with glutaraldehyde, depth about 300 microns, one frame per second
  dynamic speckle at fixed depth: static speckle

## COC(=O)Nc1nc2ccc(C(=O)c3cccs3)cc2[nH]1 [Nocodazole]
Tumor spheroids; 2 μg/ml Nocodazole, 3 minutes after application, fixed depth
  motility (activity) of the outer shell, motility maps: increased its activity by a small amount
Tumor spheroids; 2 μg/ml Nocodazole, 21 minutes
  motility (motion) of the outer shell, motility maps: partially suppressed
Tumor spheroids; 2 μg/ml Nocodazole, 50 minutes
  motility (motion) of the outer shell, motility maps: further suppressed
Tumor spheroids; 2 μg/ml Nocodazole, 79 minutes
  motility (motion) of the outer shell, motility maps: further suppressed
Tumor spheroids; 2 μg/ml Nocodazole, 119 minutes after application
  motility in the outer shell, motility maps: significantly reduced
Tumor spheroids
  dose-response plotted as a reaction velocity (suppression of cellular motion): strongest suppression of cellular motion at the lowest effective concentrations
[1]; 1 μg/ml nocodazole
  normalized spectral difference, middle frequency range between 0.02 Hz to 1 Hz: very strong suppression in motion
  normalized spectral difference, ultra-low frequency below 0.01 Hz: enhancement
[1]; 1 μg/ml nocodazole, 450-μm-diameter tumor, proliferating shell
  normalized differential relative spectral change as a function of time at selected frequencies: higher frequencies change relatively less than the lower frequencies
[1]; dose of 1 μg/ml, FIG. 34A-34D
  spectrogram fingerprint: significant enhancement of lower frequencies

## COc1cc2c(c(OC)c1OC)-c1ccc(OC)c(=O)cc1[C@@H](NC(C)=O)CC2 [Colchicine]
[1]
  high-frequency organelle activity, core-shell comparison: appears only in the healthy shell and not in the core
  spectrogram fingerprint: significant enhancement of lower frequencies

## C=C1[C@@H](C)[C@H]2[C@H](Cc3ccccc3)NC(=O)[C@]23[C@H](OC(C)=O)/C=C/[C@@](C)(O)C(=O)[C@@H](C)C/C=C/[C@H]3[C@@H]1O [cytochalasin D]
[2]
  brightness change of the healthy shell: 6%
  brightness change of the necrotic core: becomes dimmer
[2]; before dose 4.6 sec
  correlation time, healthy shell: 7.2 s
[1]; 50 μg/ml cytochalasin D at room temperature, 10 μg/ml at physiological temperature
  relative power spectral density, middle-frequency fluctuations, shell: enhanced
[1]; dose of 1 μg/ml, FIG. 34A-34D
  spectrogram fingerprint: enhancement of the mid-frequencies for about 2 hours after application of the drug, followed by a shift of the spectral weight to lower frequencies
[1]; shell versus core spectrograms
  high-frequency organelle activity, core-shell comparison: appears only in the healthy shell and not in the core; also recorded: appears strongly only in the shell and not in the core

## CC(=O)O[C@H]1C(=O)[C@@]2(C)[C@H]([C@H](OC(=O)c3ccccc3)[C@]3(O)C[C@H](OC(=O)[C@H](O)[C@@H](NC(=O)c4ccccc4)c4ccccc4)C(C)=C1C3(C)C)[C@]1(OC(C)=O)CO[C@@H]1C[C@@H]2O [Taxol, Paclitaxel]
Tumor spheroids; FIG. 13A-13C
  suppression of the motility, time evolution under different doses: significantly smaller suppression of the motility
Tumor spheroids
  dose-response plotted as a reaction velocity (suppression of cellular motion): weakest effect
[1]; dose of 1 μg/ml, FIG. 34A-34D
  spectrogram fingerprint: only a weak change
[1]; shell versus core spectrograms
  high-frequency organelle activity, core-shell comparison: appears only in the healthy shell and not in the core

## O=C(O)CI [iodoacetate]
[1]
  oscillations in the spectrogram, shell and core: induces oscillations in the mid-to-low frequency range
  spectrogram of the shell, high frequencies associated with organelle transport: strong increase
